Entries after “also recorded” stand apart in the source; their conditions may differ. Read-outs that look alike come from different tables or passages of the source. Values belong to the molecule of their own block, whether it stands above or below them. Peptide text beside a SMILES is read from it.
Columns and labels:
[1] = Solubility measurements / aggregation points of AQGV salts
Description: At first attempts were made to mix a solution of the free base and an acid in order to achieve a concentrated DMSO solution of the salt and subsequently dilute this in water in order to determine solubility. […] It was decided to determine the solubility of the salts required by dilution of known amount of salts (not soluble) till a clear solution is obtained.

[2] = tested on: patients undergoing on-pump coronary artery bypass grafting (CABG); experiment: EASI phase II study: safety, adverse events; type: in vivo, human
Protocol: During cardiac surgery, 180 patients received (double-blinded, placebo-controlled, randomized) 90 mg/kg/hour EA-230 or placebo. The primary endpoint was safety. Efficacy was assessed by immunomodulation (plasma interleukin (IL)-6 concentrations), renal function (glomerular filtration rate using iohexol and creatinine [GFRiohexol, eGFRMDRD] and the incidence of acute kidney injury [AKI, RIFLE criteria]), cardiovascular effects (fluid balance, vasoactive agents) and general outcome (length-of-stay).
A prospective, randomized, double-blind, placebo-controlled study was performed in which 180 elective patients, undergoing on-pump coronary artery bypass grafting, with or without concomitant valve surgery, were enrolled. Patients were randomized in a 1:1 ratio and received either EA-230, 90 mg/kg/hour, or a placebo. These were infused at the start of the surgical procedure until the end of the use of the cardiopulmonary bypass. The main focus in this first-in-patient study was on safety and tolerability of EA-230. The primary efficacy endpoint was the modulation of the inflammatory response by EA-230 quantified as the change in interleukin-6 plasma concentrations after surgery. A key secondary endpoint was the effect of EA-230 on renal function.
The present study was a single-center, prospective, double-blind, placebo-controlled, randomized, single-dose phase II study. It has an adaptive design to evaluate the safety and immunomodulatory effects of EA-230 in patients undergoing on-pump cardiac surgery for coronary artery bypass grafting (CABG) with or without concomitant valve surgery. 180 eligible patients were included and were randomized to receive either active or placebo treatment in a 1:1 ratio. This was a first-in-patient safety and tolerability study, of which the primary efficacy objective was to assess the immunomodulatory effects of EA-230. The key-secondary efficacy endpoint was the effect of EA-230 on renal function. This study was described in accordance with the Standard Protocol Items: Recommendations for Interventional Trial (SPIRIT) guidelines, and registered at clinicaltrials.gov under number NCT03145220.
(§1) Intravenous infusion of EA-230, 90 mg/kg/hour, or placebo, was initiated at the moment of first surgical incision using an automated infusion pump. Infusion rate was set at 250 ml/hour, and infusion was continued until cessation of the CPB, or after 4 hours of continuous infusion, whichever comes first.
All AEs were judged by the investigators with regard to severity (“mild, moderate, or severe”) according to Common Terminology Criteria for Adverse Events guidelines 4.030 and their perceived relation to the study drug (“definitely, probably, possibly, or unrelated/unlikely to be related”). SAEs or SUSARs include death, life-threatening disease, persistent and/or significant disability and/or incapacity, and hospitalization and/or prolongation of inpatient hospitalization.

[3] = EASI phase II study: pharmacokinetics; type: in vivo; conditions: human; for Cmax: in vivo, iv, 90 mg/kg, Phase II trial, 90 mg/kg/hour i.v. infusion
Protocol: as §1

[4] = 90 mg/kg/hour i.v. during CABG surgery

Molecule: CC(C)[C@H](NC(=O)CNC(=O)[C@H](CCC(N)=O)NC(=O)[C@H](C)N)C(=O)O [AQGV-citrate] (H-AQGV-OH)
Behaviour of highly concentrated solution ([1]; 0.9% NaCl, listed as Citric acid): does not crystallize or aggregate but tend to form a highly viscous solution
Behaviour of highly concentrated solution ([1]; 0.9% NaCl, listed as citric acid): remains clear but got very thick/viscous
Solubility in DMSO ([1]; free base mixed with acid in DMSO): did not dissolve in DMSO at all
Total amount dissolved (clear solution) ([1]; in 0.5 mL 0.9% NaCl): 2.75 mmol

Molecule: CC(C)[C@H](NC(=O)CNC(=O)[C@H](CCC(N)=O)NC(=O)[C@H](C)N)C(=O)O [EA-230, AQGV] (H-AQGV-OH)
Adverse events compared with placebo [2, 4]: less (serious) adverse events and less mayor clinical adverse events
Patients suffering from (adverse) fluid retention compared with placebo [2, 4]: significantly less patients suffering from fluid retention; also recorded: significant reduction of adverse fluid retention
AE of mild intensity: (%) of patients ([2]; EASI-study, N = 91): (83.5) %
AE of mild intensity: e (number of events) ([2]; EASI-study, N = 91): 188
AE of mild intensity: n (number of patients experiencing the event) ([2]; EASI-study, N = 91): 76
AE of moderate intensity: (%) of patients ([2]; EASI-study, N = 91): (24.2) %
AE of moderate intensity: e (number of events) ([2]; EASI-study, N = 91): 23
AE of moderate intensity: n (number of patients experiencing the event) ([2]; EASI-study, N = 91): 22
AE of severe intensity: (%) of patients ([2]; EASI-study, N = 91): (5.5) %
AE of severe intensity: e (number of events) ([2]; EASI-study, N = 91): 6
AE of severe intensity: n (number of patients experiencing the event) ([2]; EASI-study, N = 91): 5
Anemia: (%) of patients ([2]; EASI-study, N = 91): (5.5) %
Anemia: e (number of events) ([2]; EASI-study, N = 91): 5
Anemia: n (number of patients experiencing the event) ([2]; EASI-study, N = 91): 5
Any AE: (%) of patients ([2]; EASI-study, N = 91): (85.7) %
Any AE: n (number of patients experiencing the event) ([2]; EASI-study, N = 91): 78
Any SAE: (%) of patients ([2]; EASI-study, N = 91): (13.2) %
Any SAE: e (number of events) ([2]; EASI-study, N = 91): 23
Any SAE: n (number of patients experiencing the event) ([2]; EASI-study, N = 91): 12
Any SUSAR: (%) of patients ([2]; EASI-study, N = 91): (0) %
Any SUSAR: e (number of events) ([2]; EASI-study, N = 91): 0
Any SUSAR: n (number of patients experiencing the event) ([2]; EASI-study, N = 91): 0
Blood and lymphatic system disorders, Overall: (%) of patients ([2]; EASI-study, N = 91): (5.5) %
Blood and lymphatic system disorders, Overall: e (number of events) ([2]; EASI-study, N = 91): 6
Blood and lymphatic system disorders, Overall: n (number of patients experiencing the event) ([2]; EASI-study, N = 91): 5
Delirium: (%) of patients ([2]; EASI-study, N = 91): (5.5) %
Delirium: e (number of events) ([2]; EASI-study, N = 91): 5
Delirium: n (number of patients experiencing the event) ([2]; EASI-study, N = 91): 5
Fluid retention: (%) of patients ([2]; EASI-study, N = 91): (2.2) %
Fluid retention: e (number of events) ([2]; EASI-study, N = 91): 2
Gastrointestinal disorders, Overall: (%) of patients ([2]; EASI-study, N = 91): (23.1) %
Gastrointestinal disorders, Overall: e (number of events) ([2]; EASI-study, N = 91): 27
Gastrointestinal disorders, Overall: n (number of patients experiencing the event) ([2]; EASI-study, N = 91): 21
Hemorrhagic diathesis: (%) of patients ([2]; EASI-study, N = 91): (1.1) %
Hemorrhagic diathesis: e (number of events) ([2]; EASI-study, N = 91): 1
Hemorrhagic diathesis: n (number of patients experiencing the event) ([2]; EASI-study, N = 91): 1
Infections and infestations, Overall: (%) of patients ([2]; EASI-study, N = 91): (14.3) %
Infections and infestations, Overall: e (number of events) ([2]; EASI-study, N = 91): 15
Infections and infestations, Overall: n (number of patients experiencing the event) ([2]; EASI-study, N = 91): 13
Metabolism and nutrition disorders, Overall: (%) of patients ([2]; EASI-study, N = 91): (11) %
Metabolism and nutrition disorders, Overall: e (number of events) ([2]; EASI-study, N = 91): 10
Metabolism and nutrition disorders, Overall: n (number of patients experiencing the event) ([2]; EASI-study, N = 91): 10
Nausea: (%) of patients ([2]; EASI-study, N = 91): (16.5) %
Nausea: e (number of events) ([2]; EASI-study, N = 91): 15
Nausea: n (number of patients experiencing the event) ([2]; EASI-study, N = 91): 15
Psychiatric disorders, Overall: (%) of patients ([2]; EASI-study, N = 91): (9.9) %
Psychiatric disorders, Overall: e (number of events) ([2]; EASI-study, N = 91): 9
Psychiatric disorders, Overall: n (number of patients experiencing the event) ([2]; EASI-study, N = 91): 9
Renal and urinary disorders, Overall: (%) of patients ([2]; EASI-study, N = 91): (4.4) %
Renal and urinary disorders, Overall: e (number of events) ([2]; EASI-study, N = 91): 4
Renal and urinary disorders, Overall: n (number of patients experiencing the event) ([2]; EASI-study, N = 91): 4
Safety and tolerability ([2]; continuous infusion 90 mg/kg/hour up to 4 hours, elective CABG surgery): safe and No safety concerns emerged and well tolerated and showed an excellent safety profile
Time to clearance from the circulation when infusion is terminated [3]: 5 to 10 min
Cmax ([3]; read-out: Arterial Cmax, range): 12500 to 57500 ng/mL
Cmax ([3]; read-out: Mean arterial Cmax): 30500 ng/mL
Cmax ([3]; read-out: Mean venous Cmax): 68400 ng/mL
Cmax ([3]; read-out: Venous Cmax, range): 19600 to 113000 ng/mL

Clear solution on adding 0.9% NaCl [1]: no clear solution could be obtained
Molecule: Nc1ncnc2c1ncn2[C@@H]1O[C@H](COP(=O)(O)O)[C@@H](O)[C@H]1O [adenosine-monophosphate]

Solubility compared to AQGV-Ac ([1]; 0.9% NaCl): lower solubility
Molecule: O=C(O)/C=C\C(=O)O [maleic acid]

Molecule: adenosine
Clear solution on adding 0.9% NaCl ([1]; 1 or 0.5 mmol salt, small amounts of 0.9% NaCl added): no clear solution could be obtained

From patent US20220370543A1, “METHODS OF TREATMENT FOR MODIFYING HEMODYNAMICS” (EBI ANTI SEPSIS B.V., priority 2019, published 2022)
